Where two headings read alike, the source gives them in different places.
What was measured:
recombinant rat AOR = recombinant rat AOR (Rattus norvegicus, UniProt P97584, Q160G/Q263G/Q264G/Q276G)
Experimental: Varied concentrations of illudin M were added to a 200 μl 0.5× phosphate buffered saline (PBS) solution containing 115 ng of AOR and 43.4 nmoles NADPH, and incubated for 1 minute at 37° C. Reactions were then extracted with ethyl acetate containing piperine (internal standard), dried under vacuum, resuspended in HPLC buffer A (60% acetonitrile: 40% water), and injected into a Hewlett-Packard 1050 HPLC system equipped with a Luna C18 column (Phenomenex Inc.). Metabolites were separated using buffer A at a flow rate of 1 ml/min and quantified using diode array detection at 205 nm and previously reported extinction coefficients (Tanaka, et al., 1990). Vmax and Km were calculated using the HYPER program.
Rates were quantified from metabolite peak areas using reported extinction coefficients (Tanaka, et al., 1990; McMorris, et al., 1999).

recombinant AOR = molecular target: T1, recombinant AOR (Rattus norvegicus, UniProt P97584, Q160G/Q263G/Q264G/Q276G); assay: LC/MS/MS of enzymatic and nonenzymatic GSH adducts; type: biochemical
T1 construct: made in house
Experimental: High Performance Liquid Chromatography with Tandem Mass Spectrometry (LC/MS/MS) of GSA Adducts. […] These reactions were incubated at 37° C. for 1 h. Controls lacking NAFPH were performed. Reactions were stopped and deproteinized with addition of 400 μl of ice-cold acetonitrile, spun at 3500×g for 10 min at 4° C., and the supernatants were evaporated to dryness under vacuum. Residual GSH and NADPH cofactors were removed using an Oasis C18 sample prep column (Waters Chromatography). Adducts were eluted with methanol, evaporated to dryness under vacuum, resuspended in […] of 0.1% acetic acid, and detected using liquid chromatography electrospray ionization tandem mass spectrometry performed in the positive ion mode. […] A flow rate of 0.1 ml/min and gradient of 0% buffer D (70% acetic acid (0.1%):30% acetonitrile) to 100% buffer E (20% acetic acid (0.1%):80% acetonitrile) over 30 min were used to resolve the compounds. Adducts were detected by monitoring for selected molecular ions or characteristic molecular fragments after MS/MS. Molecular fragments were obtained with 35% relative collusion energy.
Measuring GSH adduction is a commonly used technique for estimating covalent protein binding, and thus cytotoxicity, of a drug (Baillie and Kassahun, 2001). The nucleophilic thiol moiety of GSH effectively scavenges electrophilic molecules and its large size and charge prevent it from entering the active site of most enzymes. […] Daughter ions of adducts, which represent the loss of water (−18 m/z) or […] (−129 m/z), were common and monitored for in these experiments following MS/MS.
Enzymatic reduction occurred in incubations containing recombinant AOR, NADPH, and GSH, while companion nonenzymatic reductions lacked NADPH. […] However the NE irofulven-GSH adduct (FIG. 5B) was detected only after monitoring for a daughter ion (M+—H2)=536 m/z) and was 42-fold less abundant than the E adduct. […] Contrary to findings with irofulven, a great deal of NE illudin M-GSH adduct was detected in NADPH-deficient incubations.

Chain of recombinant rat AOR (P97584 whole entry Q160G/Q263G/Q264G/Q276G): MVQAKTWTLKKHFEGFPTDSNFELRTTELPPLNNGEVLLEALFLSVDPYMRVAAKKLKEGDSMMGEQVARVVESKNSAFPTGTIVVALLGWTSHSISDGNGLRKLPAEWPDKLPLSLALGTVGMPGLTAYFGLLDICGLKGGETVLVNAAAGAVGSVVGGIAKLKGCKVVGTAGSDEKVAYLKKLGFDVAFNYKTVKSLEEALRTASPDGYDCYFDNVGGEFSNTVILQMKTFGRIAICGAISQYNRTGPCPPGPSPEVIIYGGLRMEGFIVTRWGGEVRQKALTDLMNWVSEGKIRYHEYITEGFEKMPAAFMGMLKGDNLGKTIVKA
T1 sequence (P97584 whole entry Q160G/Q263G/Q264G/Q276G): as above

SMILES	effect on AOR-mediated activation of irofulven (293 cells)	effect on cell growth (293 cells; 100 μM, alone)	Km (recombinant rat AOR) [µM]	maximal rate of metabolism by AOR (recombinant rat AOR) [µmol/min/mg]	Km (recombinant rat AOR; formation of Product 5) [µM]	Vmax (recombinant rat AOR; formation of Product 5)	Km (recombinant rat AOR; formation of Product 6) [µM]	Vmax (recombinant rat AOR; formation of Product 6)	NE GSH adduct detected (recombinant AOR; NADPH-deficient incubations)	abundance of E (enzymatic) GSH adduct over NE (nonenzymatic) adduct (recombinant AOR; incubations with AOR, GSH and NADPH, 1 h, 37° C.) [fold]	Km (recombinant rat AOR; formation of Product 3) [µM]	Vmax (recombinant rat AOR; formation of Product 3)	Km (recombinant rat AOR; formation of Product 4) [µM]	Vmax (recombinant rat AOR; formation of Product 4)	CC50 (293 cells; read-out: LC50 (concentration required to produce 50 percent lethality), 293 cells, 24 h, MTT assay) [µM]
O=c1oc2ccccc2c(O)c1Cc1c(O)c2ccccc2oc1=O [dicumarol, Dicumarol]	attenuated partially	no effect on cell growth	–	–	–	–	–	–	–	–	–	–	–	–	–
CC1=C2C(=C[C@@](C)(CO)[C@@H]2O)C(=O)[C@](C)(O)C12CC2 [Illudin S]	–	–	308	115.9	486	65,400 nmol/min/mg	308	50,500 nmol/min/mg	–	–	–	–	–	–	–
CC1=C2C(=CC(C)(C)[C@@H]2O)C(=O)[C@](C)(O)C12CC2 [Illudin M]	–	–	109	44.1	–	–	–	–	a great deal	14	109	29,200 nmol/min/mg	113	14,900 nmol/min/mg	~1

— US7718385B2, “Bioactivation of alkylating agents for cancer treatment” (priority 2003, dated 2010)
